Test results as given in US20240123016A1, “WITHANOLIDE-ENRICHED COMPOSITIONS AND METHODS OF USE THEREOF” (priority 2021, published 2024).

Columns and labels:
[1] = DPPH radical scavenging assay (antioxidant activity); assay type: biochemical; settings: 1000 μg/ml, 30 minutes
Protocol: Antioxidant activity of various Ashwagandha samples was measured using a 2,2-diphenyl-1-picrylhydrazyl (DPPH) radical scavenging assay. DPPH is a stable free radical that produces violet solution in ethanol and, upon reduction by antioxidant compounds, produces light yellow-to-colorless solutions. For comparative antioxidant activity analysis of […], relative to non- branded and branded Ashwagandha compositions, two different dilutions (100 μg/ml and 1000 μg/ml) of each sample were prepared in ethanol and 500 μl of each sample dilution was mixed (1:1) with 500 μl of 0.04 mg/ml DPPH (Sigma #D9132-1G) ethanolic solution. Gallic acid (a natural polyphenolic antioxidant) and sucrose were used as positive and negative controls, respectively. All samples and controls were thoroughly vortexed and incubated for 30 minutes at room temperature in the dark followed by absorbance (Abs) readings at 517 nm using a spectrophotometer. Percentage antioxidant activity was calculated using the formula: 100-(AbsSample-AbsBlank/AbsControl×100), where AbsSample=Sample Dilution+DPPH Solution; AbsBlank=Sample Dilution+DPPH solvent; and AbsControl=Sample Solvent+DPPH Solution.

[2] = system: HEK293 cells; assay: cells; settings: Homo sapiens, HEK293, read-out: IC50 for H2O2 treatment (cell viability)
Protocol: Cell viability was analyzed using the MTT assay described herein.

Compound	percent anti-oxidant activity (%AA) [1] [%]	IC50 [2] [µM]
O=C(O)c1cc(O)c(O)c(O)c1 [Gallic acid]	90.12±1.1	
OO [H2O2, hydrogen peroxide]		400
